The target in assay [1] is T1, glycoprotein IIb-IIIa on activated platelets (Homo sapiens, UniProt P05106+P08514).
T1 construct: Venous blood from normal donors was drawn; endogenous in cells
T1 sequence (P08514 32-887 limits assumed): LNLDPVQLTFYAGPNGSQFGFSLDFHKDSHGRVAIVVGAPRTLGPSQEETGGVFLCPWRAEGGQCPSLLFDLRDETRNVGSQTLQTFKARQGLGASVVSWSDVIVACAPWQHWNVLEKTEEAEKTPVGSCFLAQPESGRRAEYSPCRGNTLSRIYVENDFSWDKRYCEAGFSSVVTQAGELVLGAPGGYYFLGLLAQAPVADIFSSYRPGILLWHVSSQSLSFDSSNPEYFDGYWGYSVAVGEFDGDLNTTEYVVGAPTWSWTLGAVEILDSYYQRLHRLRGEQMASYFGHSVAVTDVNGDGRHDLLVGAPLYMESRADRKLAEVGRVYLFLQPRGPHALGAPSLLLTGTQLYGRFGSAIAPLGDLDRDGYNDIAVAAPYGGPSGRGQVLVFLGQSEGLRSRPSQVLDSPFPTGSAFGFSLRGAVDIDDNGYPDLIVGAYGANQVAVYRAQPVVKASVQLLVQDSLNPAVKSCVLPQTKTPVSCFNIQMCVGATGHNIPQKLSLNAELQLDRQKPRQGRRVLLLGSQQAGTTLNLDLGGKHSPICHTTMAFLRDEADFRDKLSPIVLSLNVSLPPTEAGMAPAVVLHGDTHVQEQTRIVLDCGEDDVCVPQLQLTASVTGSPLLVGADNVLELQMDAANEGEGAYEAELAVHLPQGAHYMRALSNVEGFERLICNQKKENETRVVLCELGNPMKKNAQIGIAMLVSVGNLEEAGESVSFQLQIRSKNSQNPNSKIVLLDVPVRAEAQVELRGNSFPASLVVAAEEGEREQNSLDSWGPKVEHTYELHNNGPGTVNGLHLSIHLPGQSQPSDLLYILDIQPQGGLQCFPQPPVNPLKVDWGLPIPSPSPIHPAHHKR
T1 sequence (P05106 27-788): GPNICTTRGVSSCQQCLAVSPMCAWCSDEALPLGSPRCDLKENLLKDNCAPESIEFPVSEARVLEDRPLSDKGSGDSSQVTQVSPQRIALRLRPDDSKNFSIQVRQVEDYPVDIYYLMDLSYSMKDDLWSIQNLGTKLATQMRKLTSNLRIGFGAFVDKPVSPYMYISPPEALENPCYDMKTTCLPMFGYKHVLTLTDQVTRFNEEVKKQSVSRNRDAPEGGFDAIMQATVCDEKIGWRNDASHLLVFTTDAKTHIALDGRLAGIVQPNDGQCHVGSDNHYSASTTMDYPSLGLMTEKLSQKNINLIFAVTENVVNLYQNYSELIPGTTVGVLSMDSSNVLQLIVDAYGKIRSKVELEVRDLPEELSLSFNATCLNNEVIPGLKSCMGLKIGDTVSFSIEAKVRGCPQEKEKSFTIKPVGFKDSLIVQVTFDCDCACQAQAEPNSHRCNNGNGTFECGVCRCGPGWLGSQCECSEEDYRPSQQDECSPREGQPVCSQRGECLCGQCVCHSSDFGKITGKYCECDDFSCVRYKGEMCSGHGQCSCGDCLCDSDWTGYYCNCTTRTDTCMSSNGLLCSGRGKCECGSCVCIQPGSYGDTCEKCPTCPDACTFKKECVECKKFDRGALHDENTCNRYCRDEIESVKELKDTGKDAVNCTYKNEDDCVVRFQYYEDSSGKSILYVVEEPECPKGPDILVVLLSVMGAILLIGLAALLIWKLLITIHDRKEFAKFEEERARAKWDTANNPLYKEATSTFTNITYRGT
Nature of the assay: Binding of FITC-PAC1 to activated gel-filtered platelets, flow cytometry. To be noted: for effect on FITC-PAC1 binding: platelets activated with ADP and epinephrine (10 μM each), peptide 0-100 μM. An excerpt: The binding of PAC1 monoclonal antibody and fibrinogen to gel-filtered human blood platelets was examined by fluorescence-activated flow cytometry using the procedures of Shattil et al., Blood, 70, 307-315 (1987). Venous blood from normal donors was drawn into 1/7 vol of NIH formula A acid-citrate-dextrose solution, platelet-rich plasma was obtained, and the platelets were gel-filtered into an isotonic HEPES-containing buffer at pH 7.4, as described in Shattil et al., Blood, 68, 1224-1231 (1986). To examine the effect of synthetic peptides on PAC1 binding to activated platelets, 5×10^7 platelets were incubated for 15 min at room temperature in a final vol of 50 μl in the presence of varying concentrations of (0-100 μM) of peptide, 40 μg/ml fluorescein-labeled PAC1 (FITC-PAC1 ), 10 μM ADP and 10 μM epinephrine. Then, 500 μl of the isotonic buffer was added and antibody binding was quantitated using a flow cytometer, as described in Shattil et al., Blood, 70, 307-315 (1987). Fibrinogen binding to platelets was measured using the same incubation system, except that 50 μg/ml of purified human fibrinogen as described in Bennett et al., J. Clin. Invest., 64, 1393-1400 (1979) was added and the monoclonal antibody, FITC-9F9, was used instead of FITC-PAC1. […] Abrams et al., Blood, 70, 335a (1987). […] Shattil et al., Blood 70, 307-315 (1987). The amount of platelet-bound FITC-PAC1 or FITC-9F9 was determined by analyzing 10,000 platelets for the extent of fluorescence at 488 nm, and binding expressed as the mean fluorescence intensity in arbitrary fluorescence units.
A general note: Flow cytometry measures light scatter and fluorescence of single cells or particles in a stream.

Assay [2] deals with T2, blood platelet membrane fibrinogen receptor, glycoprotein IIb-IIIa (Homo sapiens, UniProt P05106+P08514).
T2 construct: Venous blood from normal donors was drawn; endogenous in cells
T2 sequence (P08514 32-887 limits assumed): T1 sequence (P08514 32-887 limits assumed)
T2 sequence (P05106 27-788): T1 sequence (P05106 27-788)
As to the kind of experiment: Fibrinogen binding to activated gel-filtered platelets, measured with FITC-9F9 by flow cytometry. The settings on record: 50 μg/ml fibrinogen. An excerpt: The binding of PAC1 monoclonal antibody and fibrinogen to gel-filtered human blood platelets was examined by fluorescence-activated flow cytometry using the procedures of Shattil et al., Blood, 70, 307-315 (1987). Venous blood from normal donors was drawn into 1/7 vol of NIH formula A acid-citrate-dextrose solution, platelet-rich plasma was obtained, and the platelets were gel-filtered into an isotonic HEPES-containing buffer at pH 7.4, as described in Shattil et al., Blood, 68, 1224-1231 (1986). […] Then, 500 μl of the isotonic buffer was added and antibody binding was quantitated using a flow cytometer, as described in Shattil et al., Blood, 70, 307-315 (1987). Fibrinogen binding to platelets was measured using the same incubation system, except that 50 μg/ml of purified human fibrinogen as described in Bennett et al., J. Clin. Invest., 64, 1393-1400 (1979) was added and the monoclonal antibody, FITC-9F9, was used instead of FITC-PAC1. […] Previous studies have established that the amount of FITC-labeled antibody bound to platelets determined by flow cytometry is related in a linear fashion to the amount of antibody bound determined in a conventional radioligand binding assay. […]
The ability of Arg-Tyr-Asp-21mer to inhibit fibrinogen binding to activated platelets was also tested. Fibrinogen binding was assessed by flow cytometry using a FITC-labeled anti-fibrinogen monoclonal antibody, 9F9. […]

Another assay has as its target T3, platelet glycoprotein Ib (Homo sapiens, UniProt P07359).
T3 construct: platelet glycoprotein Ib on resting platelets; endogenous in cells
Nature of the assay: Binding of FITC-AP1 to resting platelets, flow cytometry. The protocol:
(§1) Gel-filtered platelets were incubated in the presence of Arg-Tyr-Asp-21mer and various FITC-labeled anti-platelet monoclonal antibodies. Monoclonal antibody binding was determined by flow cytometry. In the case of antibody AP1 (specific for platelet glycoprotein Ib) (unfilled circles), the platelets were not activated. In the case of antibodies PAC1 (specific for activated glycoproteins IIb-IIIa) (filled circles), BIB5 (specific for glycoprotein IIb) (filled squares) and S12 (specific for GMP-140) (unfilled triangles), the platelets were activated with ADP and epinephrine (10 μM each). The data shown are from a single experiment representative of two runs performed as described.
(§2) The binding of PAC1 monoclonal antibody and fibrinogen to gel-filtered human blood platelets was examined by fluorescence-activated flow cytometry using the procedures of Shattil et al., Blood, 70, 307-315 (1987). […] Then, 500 μl of the isotonic buffer was added and antibody binding was quantitated using a flow cytometer, as described in Shattil et al., Blood, 70, 307-315 (1987). Fibrinogen binding to platelets was measured using the same incubation system, except that 50 μg/ml of purified human fibrinogen as described in Bennett et al., J. Clin. Invest., 64, 1393-1400 (1979) was added and the monoclonal antibody, FITC-9F9, was used instead of FITC-PAC1. […]

A further assay addresses T4, glycoprotein IIb (Homo sapiens, UniProt P08514).
T4 construct: endogenous in cells
T4 sequence (P08514 32-887 limits assumed): T1 sequence (P08514 32-887 limits assumed)
As to the kind of experiment: Binding of FITC-B1B5 to activated platelets, flow cytometry. The settings on record: activated platelets (ADP and epinephrine, 10 μM each). The protocol:
as §1, §2

Another assay has as its target T5, GMP-140 (Homo sapiens, UniProt P16109).
T5 construct: endogenous in cells
T5 sequence (P16109 42-830): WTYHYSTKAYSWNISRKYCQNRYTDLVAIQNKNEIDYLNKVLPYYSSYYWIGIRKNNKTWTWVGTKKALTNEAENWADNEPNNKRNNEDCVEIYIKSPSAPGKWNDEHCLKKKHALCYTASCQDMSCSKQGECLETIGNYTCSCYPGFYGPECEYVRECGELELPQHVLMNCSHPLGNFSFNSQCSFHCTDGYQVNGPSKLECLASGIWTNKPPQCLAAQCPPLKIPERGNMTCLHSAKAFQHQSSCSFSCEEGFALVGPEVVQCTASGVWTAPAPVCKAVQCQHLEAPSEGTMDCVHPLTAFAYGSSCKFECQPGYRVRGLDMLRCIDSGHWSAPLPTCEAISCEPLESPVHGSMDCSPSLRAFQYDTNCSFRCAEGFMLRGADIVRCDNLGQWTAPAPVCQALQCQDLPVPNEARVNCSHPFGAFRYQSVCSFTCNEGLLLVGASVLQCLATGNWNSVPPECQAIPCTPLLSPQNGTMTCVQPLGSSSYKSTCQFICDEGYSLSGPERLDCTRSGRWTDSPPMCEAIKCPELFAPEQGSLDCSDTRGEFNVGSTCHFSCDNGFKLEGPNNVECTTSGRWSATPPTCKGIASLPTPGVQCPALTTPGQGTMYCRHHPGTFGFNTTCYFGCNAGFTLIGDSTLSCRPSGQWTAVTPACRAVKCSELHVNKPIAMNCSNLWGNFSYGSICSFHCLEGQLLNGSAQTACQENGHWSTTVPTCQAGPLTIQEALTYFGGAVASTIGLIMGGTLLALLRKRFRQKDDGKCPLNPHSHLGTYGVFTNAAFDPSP
Nature of the assay: Binding of FITC-S12 to activated platelets, flow cytometry. To be noted: activated platelets (ADP and epinephrine, 10 μM each). How it is done:
as §1, §2

The results in this text go back to US5169836A, “Inhibitors of platelet binding” (Trustees of the University of Penna., priority 1988, dated 1992).

Where no end group is shown, it is not given here.

T3 sequence (P07359 17-652): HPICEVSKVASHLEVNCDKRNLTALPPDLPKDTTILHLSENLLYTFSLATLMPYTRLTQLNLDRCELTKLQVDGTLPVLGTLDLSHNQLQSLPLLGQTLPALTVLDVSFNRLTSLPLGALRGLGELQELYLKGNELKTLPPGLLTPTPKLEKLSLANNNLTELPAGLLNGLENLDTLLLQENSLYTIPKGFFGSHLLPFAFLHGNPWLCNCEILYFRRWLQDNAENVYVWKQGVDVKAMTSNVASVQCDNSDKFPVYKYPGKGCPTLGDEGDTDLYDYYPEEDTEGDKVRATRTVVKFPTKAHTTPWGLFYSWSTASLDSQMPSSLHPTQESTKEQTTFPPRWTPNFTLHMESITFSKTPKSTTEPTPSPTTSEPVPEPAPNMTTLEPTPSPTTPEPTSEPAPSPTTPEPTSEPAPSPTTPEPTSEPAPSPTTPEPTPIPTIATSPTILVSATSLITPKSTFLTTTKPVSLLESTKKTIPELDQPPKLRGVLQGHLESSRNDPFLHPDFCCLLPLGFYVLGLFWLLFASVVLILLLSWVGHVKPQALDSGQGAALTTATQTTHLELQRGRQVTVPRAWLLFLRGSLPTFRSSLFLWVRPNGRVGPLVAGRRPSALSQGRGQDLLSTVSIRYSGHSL
T3 sequence (P13224 26-206 partner): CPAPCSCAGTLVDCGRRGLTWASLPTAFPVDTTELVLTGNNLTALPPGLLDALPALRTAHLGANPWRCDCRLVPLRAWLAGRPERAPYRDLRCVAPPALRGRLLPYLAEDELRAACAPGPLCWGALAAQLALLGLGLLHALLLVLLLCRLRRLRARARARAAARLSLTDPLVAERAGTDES
T3 sequence (P14770 17-177 partner): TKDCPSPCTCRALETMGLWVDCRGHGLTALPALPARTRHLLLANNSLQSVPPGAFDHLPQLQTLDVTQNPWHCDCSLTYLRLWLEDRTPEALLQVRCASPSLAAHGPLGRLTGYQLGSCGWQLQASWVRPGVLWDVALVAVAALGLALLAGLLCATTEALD

Turning to “ARRSPSYYRYDGAGPYYAMDY [Arg-Tyr-Asp-21mer]”, the Ki was 10.2 ± 4.3 µM in assay [1] (Dixon plot analysis, five separate experiments, ±SE, read-out: apparent Ki for inhibition of PAC1 binding) and 5.5 ± 3.5 µM in assay [2] (Dixon plot analysis, three experiments, ADP plus epinephrine, read-out: apparent Ki for inhibition of fibrinogen binding). Moreover, the IC50 (usually the point on the concentration scale where inhibition reaches its midpoint) in assay [1] (platelets activated with 10 μM ADP and 10 μM epinephrine, 40 μg/ml FITC-PAC1, 15 min, room temperature, read-out: IC50 for inhibition of the binding of FITC-PAC1 to platelets) fell in the range of 20 to 30 µM. Besides, the “effect on FITC-PAC1 binding” value in assay [1] is reported as “marked effect”. The “effect on the binding of FITC-AP1 to platelet glycoprotein Ib” value on platelet glycoprotein Ib was “no effect”. For the same substance, the “effect on the binding of FITC-B1B5 to glycoprotein IIb” value at glycoprotein IIb is on record as “no effect”. Also, the “effect on the binding of FITC-S12 to GMP-140” value on GMP-140 is on record as “no effect”.
For the substance “NH2 -Tyr-Val-Asp-Gly-Asp-Gln-Cys-(Acm)-Glu-Ser-Asn-Pro-Cys-Leu-Asn-Gly-Gly-Met(O)-Cys-(Acm)-Lys-Asp-Asp-Ile-Asn-Ser-Tyr-Gly-Cys-Phe-COOH [unrelated-28mer, reference compound]”, in assay [1], the “effect on FITC-PAC1 binding” value is given as “no effect”. For the same substance, the “effect on 9F9 binding (fibrinogen binding)” value in assay [2] (platelets activated with ADP plus epinephrine) was “no effect”.
